{"source": "patent US20020107228A1", "about": "“Topical bisphosphonates for prevention of bone resorption” (Merck & Co., Inc, priority 1996, published 2002)", "key": {"Wistar rats [1]": {"test_system": "Wistar rats", "details": "sacrifice 3 weeks after flap", "protocol": "63 Wistar rats were used in this experiment, and were divided into the four groups. Group A: 15 rats received 0.05 mg/kg body weight of alendronate. Group B: 15 rats received 0.25 mg/kg body weight of alendronate. Group C: 15 rats received 0.5 mg/kg body weight of alendronate. Group D was the control group, where 18 rats received saline. The alendronate sodium or saline was administered one week prior to surgery, at the day of surgery before the surgery was performed, and one week following surgery. The drug was administered IV in the dorsal vein of the penis.\nIn one experiment, one group of rats were anesthetized prior to surgery or alendronate administration using a mixture of 25 mg/kg body weight of KETALAR (Malgene, Lyon France), and 42 mg/kg body weight XYLAZINE (Rampun Bayer, Leverkusen, Germany) intraperitoneally (IP). A portion of these rats also received 25 mg/kg alendronate IP. […] The flap was elevated using a special small periosteal elevator, and readapted immediately in place without sutures. […]\nIn another set of experiments, alendronate was applied locally at three dose levels using a wet gauze sponge soaked with a solution of 0.15, 0.75, and 1.5 mg/ml on the exposed bone on the experimental side and saline on the exposed bone on the control side for 10 seconds. Since the sponge could absorb 0.1 ml, the maximum calculated amount of drug applied was 0.5 mg/kg body weight. […]"}, "alveolar bone resorption": {"test_system": "alveolar bone resorption", "details": "Yaffe et al. 1995, cited from earlier work"}, "Wistar rats [2]": {"test_system": "Wistar rats", "details": "topical, 1 mm GELFOAM pellet soaked in 0.025 ml of 20 mg/ml alendronate in saline, in situ at least two hours; sacrifice 21 days after surgery; vs GELFOAM-only control side", "protocol": "Wistar rats were used in the following experiment. The right side of the mandible was used as the experimental side and the left side was used as the control.\nThe rats were anesthetized prior to surgery using a mixture of 25 mg/kg body weight of KETALAR (Malgene, Lyon, France) and 42 mg/kg body weight of XYLAZINE (Rampun Bayer, Leverkusen, Germany) intraperitoneally (IP).\nA mucoperiosteal flap was made on both the buccal and lingual aspects in the region of premolars and molars on both sides of the mandible, two quadrants per rat. The flap was elevated using a special small periosteal elevator. A 1 mm diameter piece of GELFOAM (Upjohn Co., Kalamazoo, Mich.) which was soaked in 0.025 ml alendronate solution (below) was applied to the alveolar bone on both buccal and lingual aspects on the experimental (right) side and the flap was then readapted immediately in place without sutures.\nThe alendronate solution was prepared by dissolving 20 mg alendronate in 1 ml saline.\nA GELFOAM pellet of 1 mm diameter, identical to the alendronate-soaked pellet, but lacking the alendronate, was applied to the alveolar bone in the control side. The entire procedure lasted about 20-40 seconds. The GELFOAM pellets remained in situ for at least two hours while the anesthesia was effected. The rats were fed a soft diet for 24 hours after surgery to avoid flap displacement. […]"}}}
{"smiles": "NCCCC(O)(P(=O)(O)O)P(=O)(O)O", "note": "[alendronate, 4-amino-1-hydroxy-butylidene 1,1,-bisphosphonic acid]", "values": [{"measurement": "alveolar bone resorption (X-ray microradiography)", "setting": "Wistar rats [1]; IV, all doses (0.05, 0.25, 0.5 mg/kg), one week before, day of and one week after surgery", "result": "reduced"}, {"measurement": "effect on reducing bone resorption (alveolar bone, X-ray microradiography)", "setting": "Wistar rats [1]; applied locally for 10 seconds on alveolar bone during surgery, wet gauze sponge, 0.15, 0.75 and 1.5 mg/ml", "result": "no noticeable effect"}, {"measurement": "inhibiting bone resorption following surgery", "setting": "alveolar bone resorption; alendronate solutions applied topically", "result": "not found to be effective"}, {"measurement": "amount of alveolar bone resorption following surgery", "setting": "alveolar bone resorption; intravenous administration", "result": "reduce"}, {"measurement": "bone resorption (alveolar bone, X-ray microradiography)", "setting": "Wistar rats [2]", "result": "inhibited"}]}
